Measurements taken from the supplement of paper PMC11699113.
Where a name gives a salt, the structure may show the parent alone.

System: ED cells (E. derm NBM-6, ATCC CCL-57)
Assay: cell viability (ATP, CellTiter-Glo) relative to untreated control (fraction of control); higher = less cytotoxic

SMILES | cell viability (0.5 µM, incubation time: 1h) | cell viability (0.5 µM, incubation time: 24h) | cell viability (0.5 µM, incubation time: 72h) | cell viability (0.5 µM, incubation time: 144h) | cell viability (2 µM, incubation time: 1h) | cell viability (2 µM, incubation time: 24h) | cell viability (2 µM, incubation time: 72h) | cell viability (2 µM, incubation time: 144h) | cell viability (5 µM, incubation time: 1h) | cell viability (5 µM, incubation time: 24h) | cell viability (5 µM, incubation time: 72h) | cell viability (5 µM, incubation time: 144h) | cell viability (10 µM, incubation time: 1h) | cell viability (10 µM, incubation time: 24h) | cell viability (10 µM, incubation time: 72h) | cell viability (10 µM, incubation time: 144h) | cell viability (50 µM, incubation time: 1h) | cell viability (50 µM, incubation time: 24h) | cell viability (50 µM, incubation time: 72h) | cell viability (50 µM, incubation time: 144h) | further results
CC(C)OC(=O)OCOP(=O)(CO[C@H](C)Cn1cnc2c(N)ncnc21)OCOC(=O)OC(C)C [tenofovir disoproxil fumarate] | 1.01 | 1.02 | 1 | 1.02 | 1.01 | 1.01 | 0.992 | 0.993 | 1.02 | 1 | 0.947 | 0.941 | 1.02 | 0.98 | 0.898 | 0.877 | 1 | 0.855 | 0.708 | 0.737 | cell viability (20 µM, incubation time: 1h): 1.01; cell viability (20 µM, incubation time: 24h): 0.95; cell viability (20 µM, incubation time: 72h): 0.836; cell viability (20 µM, incubation time: 144h): 0.833; cell viability (40 µM, incubation time: 1h): 0.999; cell viability (40 µM, incubation time: 24h): 0.89; cell viability (40 µM, incubation time: 72h): 0.75; cell viability (40 µM, incubation time: 144h): 0.766; cell viability (75 µM, incubation time: 1h): 1; cell viability (75 µM, incubation time: 24h): 0.795; cell viability (75 µM, incubation time: 72h): 0.643; cell viability (75 µM, incubation time: 144h): 0.662; cell viability (100 µM, incubation time: 1h): 0.999; cell viability (100 µM, incubation time: 24h): 0.721; cell viability (100 µM, incubation time: 72h): 0.643; cell viability (100 µM, incubation time: 144h): 0.624; cell viability (150 µM, incubation time: 1h): 0.988; cell viability (150 µM, incubation time: 24h): 0.613; cell viability (150 µM, incubation time: 72h): 0.545; cell viability (150 µM, incubation time: 144h): 0.527
CCC[C@@]1(CCc2ccccc2)CC(O)=C([C@H](CC)c2cccc(NS(=O)(=O)c3ccc(C(F)(F)F)cn3)c2)C(=O)O1 [tipranavir] | 1 | 1 | 1.04 | 1.01 | 0.997 | 0.993 | 1.04 | 1.01 | 1 | 1 | 1.02 | 1 | 1 | 1.03 | 1.01 | 0.996 | 0.958 | 0.885 | 0.822 | 0.772 | cell viability (0.25 µM, incubation time: 1h): 1.01; cell viability (0.25 µM, incubation time: 24h): 1.01; cell viability (0.25 µM, incubation time: 72h): 1.04; cell viability (0.25 µM, incubation time: 144h): 1; cell viability (20 µM, incubation time: 1h): 0.982; cell viability (20 µM, incubation time: 24h): 0.966; cell viability (20 µM, incubation time: 72h): 0.99; cell viability (20 µM, incubation time: 144h): 0.973; cell viability (100 µM, incubation time: 1h): 0.789; cell viability (100 µM, incubation time: 24h): 0.718; cell viability (100 µM, incubation time: 72h): 0.557; cell viability (100 µM, incubation time: 144h): 0.405; cell viability (140 µM, incubation time: 1h): 0.636; cell viability (140 µM, incubation time: 24h): 0.505; cell viability (140 µM, incubation time: 72h): 0.294; cell viability (140 µM, incubation time: 144h): 0.109; cell viability (166 µM, incubation time: 1h): 0.622; cell viability (166 µM, incubation time: 24h): 0.498; cell viability (166 µM, incubation time: 72h): 0.212; cell viability (166 µM, incubation time: 144h): 0.0669
Cc1cn([C@H]2C[C@H](N=[N+]=[N-])[C@@H](CO)O2)c(=O)[nH]c1=O [zidovudine] | 1.05 | 1.06 | 1.07 | 1.01 | 1.06 | 1.05 | 1.07 | 1.03 | 1.05 | 1.02 | 1.09 | 1.03 | 1.04 | 1.02 | 1.09 | 1.03 | 1.04 | 1.05 | 1.09 | 1.03 | cell viability (25 µM, incubation time: 1h): 1.02; cell viability (25 µM, incubation time: 24h): 1.02; cell viability (25 µM, incubation time: 72h): 1.08; cell viability (25 µM, incubation time: 144h): 1.04; cell viability (80 µM, incubation time: 1h): 1.04; cell viability (80 µM, incubation time: 24h): 0.981; cell viability (80 µM, incubation time: 72h): 1.07; cell viability (80 µM, incubation time: 144h): 1.03; cell viability (100 µM, incubation time: 1h): 1.04; cell viability (100 µM, incubation time: 24h): 0.98; cell viability (100 µM, incubation time: 72h): 1.08; cell viability (100 µM, incubation time: 144h): 1.04; cell viability (200 µM, incubation time: 1h): 1.03; cell viability (200 µM, incubation time: 24h): 1.04; cell viability (200 µM, incubation time: 72h): 1.09; cell viability (200 µM, incubation time: 144h): 1.06; cell viability (300 µM, incubation time: 1h): 1.02; cell viability (300 µM, incubation time: 24h): 0.958; cell viability (300 µM, incubation time: 72h): 1.08; cell viability (300 µM, incubation time: 144h): 1.06
